{
  "source": "paper PMC4984800",
  "about": "“A first in man, dose-finding study of the mTORC1/mTORC2 inhibitor OSI-027 in patients with advanced solid malignancies” (British Journal of Cancer, 2016)",
  "key": {"[1]": {"assay": "First-in-human trial: dose-limiting toxicities, adverse events, tolerability", "format": "in vivo", "excerpt": "Three different schedules of administration were investigated during the dose-escalation phase: once daily for three consecutive days every week (Schedule 1 (S1)), once weekly (Schedule 2 (S2)) and continuous once daily (Schedule 3 (S3)). The primary objective of the study was to determine MTD and recommend a dose and schedule of OSI-027 for phase 2 trials. Secondary objectives included tolerability, safety and pharmacokinetics profile, assessment of pharmacodynamics and preliminary antitumour activity.\nDose escalation was pursued independently for each schedule following a 3+3 design. Escalation was permitted if <33% patients on a dose level experienced dose-limiting toxicities (DLT), defined as any non-haematological adverse event grade ⩾3 (NCI-CTCAE v3) related with the study drug occurring during the first cycle of treatment (21 days), with the exception of […] fatigue, nausea, vomiting and/or diarrhoea. In addition, absolute reduction ⩾15% on LVEF was also considered DLT. MTD was defined as the immediately lower dose level to the one where ⩾33% of patients experienced DLT.\nAdverse events and concomitant medications were recorded throughout the trial participation.\nGuidelines for dose modifications were implemented; drug administration was halted and/or dose was reduced for creatinine increase grade ⩾2 and/or if absolute values of LVEF fell ⩾15% from baseline. Permanent treatment discontinuation was mandated for LVEF drops ⩾20%."}, "[2]": {"system": "p4EBP1 in tumour biopsies", "assay": "Paired tumour biopsies: p4EBP1 immunohistochemistry", "format": "in vivo, human", "procedure": "(§1) Drug-mediated inhibition of the mTORC1 and mTORC2 signalling was evaluated through assessing modulation of phospho-4EBP1 and phospho-PRAS40 in PBMC, as well as phospho-4EBP1 and phospho-S6 in tumour biopsies. Blood aliquots were collected prior to start dosing and at prespecified time points during the first course of treatment. Fresh tumour biopsies were obtained from selected patients during the dose escalation stage and from all patients in the expansion cohorts, at baseline and during cycle 1.\n(§2) Drug-mediated inhibition of mTORC1 and mTORC2 signalling by OSI-027 was assessed by measuring inhibition of their effectors p4EBP1 (Thr37/46) and pPRAS40 (Thr246), respectively, in PBMC. In addition, paired tumour biopsies at screening and during first month of therapy were used to study target modulation.\n(§3) In 21 cases, pre- and postdose paired tumour biopsies were amenable for PD studies."}, "[3]": {"system": "pS6 in tumour biopsies", "assay": "Paired tumour biopsies: pS6 immunohistochemistry", "format": "in vivo, human", "procedure": "as §1, §2, §3"}, "[4]": {"system": "advanced solid tumours", "assay": "Preliminary antitumour activity (RECIST)", "format": "in vivo, human", "procedure": "Assessments by imaging techniques (CT and/or MRI) were performed every 8–12 weeks or earlier if clinically indicated. Descriptive statistics were used to summarise the safety data, including all patients who received at least one dose of OSI-027. All patients who completed the pharmacokinetic sampling were included in the PK analyses, which used descriptive statistics to summarise AUC0–∞, AUC0–t, Cmax, Clast, Tmax, Tlast, %AUC extrapolated, T1/2, clearance (Cl/F) and volume of distribution (Vz/F). Exploratory analysis were planned to correlate pharmacodynamics and pharmacokinetics. Response to treatment was evaluated according to Response Evaluation Criteria in Solid Tumors (RECIST) ([Therasse et al, 2000])."}, "[5]": {"system": "mTORC1", "design": "method as in Bhagwat et al, 2011; Falcon et al, 2011", "settings": "ref Bhagwat et al, 2011, Falcon et al; cited from earlier work"}, "[6]": {"system": "mTORC2", "design": "method as in Bhagwat et al, 2011; Falcon et al, 2011", "settings": "ref Bhagwat et al, 2011, Falcon et al; cited from earlier work"}, "[7]": {"system": "tumour cell lines", "design": "method as in Bhagwat et al, 2011; Falcon et al, 2011", "settings": "including models resistant to rapalogues, ref Bhagwat et al, 2011, Falcon et al, read-out: IC50 values in a broad panel of tumour cell lines; cited from earlier work"}, "[8]": {"system": "tumour xenograft models", "design": "method as in Bhagwat et al, 2011; Falcon et al, 2011", "settings": "ref Bhagwat et al, 2011, Falcon et al; cited from earlier work"}, "[9]": {"settings": "rodents; preclinical; cited from earlier work"}, "[10]": {"settings": "preclinical toxicology studies; cited from earlier work"}, "[11]": {"settings": "monkeys; preclinical; cited from earlier work"}, "[12]": {"settings": "metastatic colorectal cancer, S3–10 mg"}},
  "note": "Entries after “also recorded” stand apart in the source; their conditions may differ. Where two headings read alike, the source gives them in different places.",
  "data": [
    {"smiles": "COc1cccc2cc(-c3nc([C@H]4CC[C@H](C(=O)O)CC4)n4ncnc(N)c34)[nH]c12", "note": "[OSI-027]", "values": [
      {"measurement": "highest potentially feasible dose", "setting": "[1]; S1, QD three consecutive days per week", "value": 120, "unit": "mg"},
      {"measurement": "MTD", "setting": "[1]; S2, once weekly, 10 to 240 mg QWK tested", "value": "Dose escalation was discontinued before a formal MTD was reached"},
      {"measurement": "MTD", "setting": "[1]; S3, continuous once daily", "value": 30, "unit": "mg QD"},
      {"measurement": "Maximum creatinine on treatment CTCAE grade 4, patients", "setting": "[1]; human, in vivo", "value": 0},
      {"measurement": "creatinine rise (increase of at least one grade in CTCAE v3), patients", "setting": "[1]; human, in vivo", "value": 26, "unit": "%"},
      {"measurement": "cutaneous toxicities, mainly grade 1–2 macular or maculo-papular rash, patients", "setting": "[1]; human, in vivo", "value": 25, "unit": "%"},
      {"measurement": "patients who discontinued drug permanently due to drug-related adverse events", "setting": "[1]; human, in vivo", "value": 8.1, "unit": "%"},
      {"measurement": "patients with a grade ⩾3 drug-related event", "setting": "[1]; human, in vivo", "value": 17, "unit": "%"},
      {"measurement": "patients with a drop in the LVEF", "setting": "[1]; human, in vivo, 3 weeks", "value": 38, "unit": "%"},
      {"measurement": "Dose limiting toxicity", "setting": "[1]; human, in vivo, 12 days", "value": "Elevated serum creatinine (G2)"},
      {"measurement": "Dose limiting toxicity", "setting": "[1]; human, in vivo, 13 days", "value": "Fatigue (G3)"},
      {"measurement": "Dose limiting toxicity", "setting": "[1]; human, in vivo, 14 days", "value": "Bone pain (G3)"},
      {"measurement": "Dose limiting toxicity", "setting": "[1]; human, in vivo, 15 days", "value": "Stress-induced cardiomyopathy (G3)"},
      {"measurement": "DLT grade 2 decreased LVEF", "setting": "[1]; human, in vivo, 21 days", "value": 1, "unit": "events"},
      {"measurement": "DLT grade 3 bone pain", "setting": "[1]; human, in vivo, 21 days", "value": 1, "unit": "events"},
      {"measurement": "DLT grade 3 cardiomyopathy", "setting": "[1]; human, in vivo, 21 days", "value": 1, "unit": "events"},
      {"measurement": "DLT grade 3 fatigue", "setting": "[1]; human, in vivo, 21 days", "value": 4, "unit": "events"},
      {"measurement": "DLT grade 3 hyperglycaemia", "setting": "[1]; human, in vivo, 21 days", "value": 1, "unit": "events"},
      {"measurement": "DLT grade 3 maculo-papular rash", "setting": "[1]; human, in vivo, 21 days", "value": 1, "unit": "events"},
      {"measurement": "DLT grade ⩾2 creatinine rise", "setting": "[1]; human, in vivo, 21 days", "value": 2, "unit": "events"},
      {"measurement": "Dose limiting toxicity", "setting": "[1]; human, in vivo, 21 days", "value": "Urticaria (G3)"},
      {"measurement": "patients with dose-limiting toxicities (DLT)", "setting": "[1]; human, in vivo, 21 days", "value": 11, "unit": "patients"},
      {"measurement": "Dose limiting toxicity", "setting": "[1]; human, in vivo, 22 days", "value": "Decreased LVEF (G2)"},
      {"measurement": "patients needing a dose reduction", "setting": "[1]; in vivo", "value": "over half of the patients"},
      {"measurement": "individuals who died during study participation", "setting": "[1]; including post-treatment 30 days follow-up, none judged drug-related", "value": "eight"},
      {"measurement": "average reduction in p4EBP1 IHC staining", "setting": "[2]; 90 mg—S1, paired tumour biopsies", "value": 22.3, "unit": "%"},
      {"measurement": "average reduction in p4EBP1 IHC staining", "setting": "[2]; 120 mg—S1, paired tumour biopsies", "value": 49.5, "unit": "%"},
      {"measurement": "average reduction in p4EBP1 IHC staining", "setting": "[2]; 240 mg—S2, paired tumour biopsies", "value": 67.6, "unit": "%"},
      {"measurement": "average reduction in pS6 expression (IHC)", "setting": "[3]; 90 mg", "value": 28.6, "unit": "%"},
      {"measurement": "average reduction in pS6 (IHC)", "setting": "[3]; 120 mg", "value": 75.3, "unit": "%"},
      {"measurement": "patients with stable disease at first follow-up radiological assessment", "setting": "[4]; 8–12 weeks", "value": 29.7, "unit": "%"},
      {"measurement": "RECIST responses (complete or partial)", "setting": "[4]; all patients", "value": "No RECIST responses were recorded; also recorded: No complete or partial responses were observed"},
      {"measurement": "patients free of progression for ⩾24 weeks", "setting": "[4]; all patients", "value": "six"},
      {"measurement": "patients with stable disease >6 months", "setting": "[4]; all patients", "value": 5, "unit": "%"},
      {"measurement": "reduction in the sum of target lesions diameters, single patient", "setting": "[4]; metastatic GIST, S1–120 mg", "value": 20, "unit": "%"},
      {"measurement": "time on therapy, single patient", "setting": "[4]; metastatic GIST, S1–120 mg", "value": 45, "unit": "weeks"},
      {"measurement": "reduction in the size of the lesions, single patient", "setting": "[4]; [12]", "value": 18, "unit": "%"},
      {"measurement": "time on treatment, single patient", "setting": "[4]; [12]", "value": 49, "unit": "weeks"},
      {"measurement": "time free of progression, single patient", "setting": "[4]; metastatic uveal melanoma, S3–35 mg", "value": 48, "unit": "weeks"},
      {"measurement": "IC50", "setting": "[5]", "value": 0.022, "unit": "µM"},
      {"measurement": "IC50", "setting": "[6]", "value": 0.065, "unit": "µM"},
      {"measurement": "IC50", "setting": "[7]", "value": "< 10", "unit": "µM"},
      {"measurement": "anti tumour activity in tumour xenograft models", "setting": "[8]", "value": "anti tumour activity was documented"},
      {"measurement": "maximum tolerated dose (MTD) in toxicology studies", "setting": "[9]", "value": 20, "unit": "mg kg^−1 per day"},
      {"measurement": "preclinical toxicology findings", "setting": "[10]", "value": "signs of immunosuppression, renal function impairment, glucose metabolism abnormalities as well as potential for cardiac and ocular toxicities at high doses"},
      {"measurement": "maximum tolerated dose (MTD) in toxicology studies", "setting": "[11]", "value": 2.5, "unit": "mg kg^−1 per day"}
    ]}
  ]
}
